Laboratory results: PMC6470838 (Pharmaceutics, 2019)
Like-named read-outs stand apart in the source and are kept apart here. Each block holds one compound with its values, some of them ahead of it.

Tests used:
prothrombin time [1] = settings: humans; cited from earlier work
prothrombin time [2] = experiment: Prothrombin time after oral administration of rivaroxaban in rats; assay type: in vivo, Sprague Dawley rats; settings: for AUEC, area under the percentage increase of prothrombin time vs. time curve / Emax, maximum percentage increase of prothrombin time: rivaroxaban 2 mg/kg oral, alone or with verapamil 25 mg/kg or diltiazem 30 mg/kg, mean (RSD %), n = 5
Description: (§1) All drugs were suspended in corn oil and administered orally.
(§2) After centrifugation (17,000 rpm, 10 min), plasma samples were stored at –70 °C until analysis, using 30 μL of plasma.
Prothrombin time was measured using a blood coagulation analyzer (ACL 7000, Instrumentation Laboratory, Bedford, MA, USA) at Korea Conformity Laboratories (Incheon, Korea) using PT recombiPlasTin 2G reagent (Instrumentation Laboratory, Bedford, MA, USA).
The time courses of prothrombin time were used to determine pharmacodynamic parameters: peak effect observed (Emax,observed) was directly obtained from the individual time courses; and the area under the effect-time curve (AUECt) was calculated by the trapezoidal rule.

[3] = Rivaroxaban plasma pharmacokinetics after oral administration in rats (model independent analysis); assay type: in vivo, Sprague Dawley rats
Description: The animals used in this study were 15 Sprague Dawley rats (8-week-old males, 280–300 g). […] The study protocol was approved by the Institutional Animal Care and Use Committees (IACUC) at Chung-Ang University. All animals used in this study were cared for in accordance with the principles outlined in the National Institutes of Health Guide for the Care and Use of Laboratory Animals.
as §1, §2
Acetonitrile (90 μL) including flufenamic acid (10 ng/mL) was added to the plasma samples (30 μL). The mixture was vigorously vortexed for 10 s and centrifuged at 17,000 rpm for 10 min. A 5-μL sample of the supernatant was injected onto the LC-MS/MS.
The compounds were purified on a reversed-phase column (Atlantis® T3, 50 × 2.1 mm internal diameter, 3 µm particle size; Waters) at 30 °C.

prothrombin time [4] = system: prothrombin time
in vivo = settings: male, Sprague Dawley, rat, plasma, oral, 2 mg/kg
[5] = ketoconazole 400 mg, qd; cited from earlier work
[6] = male, Sprague Dawley, rat, plasma, po, 2 mg/kg
[7] = PK/PD model parameter of rivaroxaban, presence or absence of verapamil, mean (RSD %), n = 5
[8] = compared with rivaroxaban 2 mg/kg alone, verapamil 25 mg/kg oral, rats
[9] = diltiazem 30 mg/kg oral, rats, vs rivaroxaban alone

AUC(0-inf) [3, 6]: 2700 ng·h/mL | CL/F [3, 6]: 12.9 mL/min/kg | Cmax [3, 6]: 373 ng/mL | Tmax [3, 6]: 2.8 h | AUCinf ([3]; rivaroxaban in plasma, rivaroxaban 2 mg/kg oral, alone or with verapamil 25 mg/kg or diltiazem 30 mg/kg, mean (RSD %), n = 5): 2700 ng·h/mL | f, absorption fraction (prothrombin time [4]; [7]): 0.61 (30) fraction | ka, absorption rate constant (prothrombin time [4]; [7]): 0.63 (22) h^−1 | ttransit, transit time (prothrombin time [4]; [7]): 6.37 (21) h | ttransit, transit time (prothrombin time [4]; PK/PD model parameter of rivaroxaban, presence or absence of verapamil, mean (RSD %), n = 5, listed as rivaroxaban): 6.4 h | Part of the dose initially absorbed, contributing to the first peak (prothrombin time [4]; rivaroxaban alone, model estimate): 40% | Vd/F (in vivo): 0.96 L/kg | k el (in vivo): 0.000236 s⁻¹
SMILES: O=C(NC[C@H]1CN(c2ccc(N3CCOCC3=O)cc2)C(=O)O1)c1ccc(Cl)s1 [Rivaroxaban]
Slope of relative prothrombin time vs. rivaroxaban plasma concentration (prothrombin time [1]): approximately 0.0029 | AUEC, area under the percentage increase of prothrombin time vs. time curve (prothrombin time [2]): 188 (9) % ∙h | Emax, maximum percentage increase of prothrombin time (prothrombin time [2]): 30 (11) % | AUEC, area under the percentage increase of prothrombin time vs. time curve (prothrombin time [2]; listed as rivaroxaban): 188 % ∙h | Emax, maximum percentage increase of prothrombin time (prothrombin time [2]; listed as rivaroxaban): 30% | Slope, percentage increase of prothrombin time vs. rivaroxaban plasma concentration (prothrombin time [4]; [7]): 0.08 (44) %·mL/ng | Slope of relative prothrombin time (ratio of the baseline level) vs. rivaroxaban plasma concentration (prothrombin time [4]; rats, prothrombin times rescaled to ratio of baseline): 0.00054

SMILES: COc1ccc(CCN(C)CCCC(C#N)(c2ccc(OC)c(OC)c2)C(C)C)cc1OC (stereo not shown) [Verapamil]
Increase of AUEC of prothrombin time by the co-administered drug (prothrombin time [2]; [8]): 2.6 fold | Increase of Emax of prothrombin time by the co-administered drug (prothrombin time [2]; [8]): 2.5 fold | Effect of the co-administered drug on the slope (percentage increase of prothrombin time vs. rivaroxaban concentration) (prothrombin time [4]; verapamil 25 mg/kg, rats): no difference

Effect of the co-administered drug on clearance and AUCinf of rivaroxaban [3, 9]: no statistical differences
SMILES: COc1ccc([C@@H]2Sc3ccccc3N(CCN(C)C)C(=O)[C@@H]2OC(C)=O)cc1 [diltiazem]
Effect of the co-administered drug on Emax and AUEC of prothrombin time (prothrombin time [2]; [9]): did not represent any significant changes

SMILES: CC(=O)N1CCN(c2ccc(OCC3COC(Cn4ccnc4)(c4ccc(Cl)cc4Cl)O3)cc2)CC1 (stereo not shown) [ketoconazole]
Effect of the concomitant drug on the systemic exposure of rivaroxaban [5]: significantly increased
